Key:
[1] = test system: pituitary cells from 21 day old rats; assay: In vitro pituitary incubate assay (release of LH and FSH); format: cell-based, rat; settings: for FSH released into medium (ng/ml) ± SEM / LH ng/ml medium ± SEM: Table IV, mean of 9
Description: The data in Tables IV and V are from the in vitro assay of the peptides with the pituitary incubate. This assay measures the release of LH and FSH in an in vitro system with pituitary cells from 21 day old rats. See, Bowers, C. Y. et al. on the inhibitory effects of leutinizing hormone releasing hormone analogs. Endocrinology, 106: 674 (1980).
The abbreviations are as follows: sc-subcutaneous, SEM-standard error of the mean; NS-not significant; ng-nanogram, and ml-milliliter. The p value represents the population coefficient .rho.(rho) which signifies whether a sample coefficient is significant or a chance deviation from zero.

21 day old female rats = assay: In vivo assay in rats for release of LH and FSH; parameters: species or system rat; settings: for Serum FSH ng/ml SEM / Serum LH ng/ml SEM: Table IX, blood sample at ±60 minutes; for Serum FSH ng/ml SEM / Serum LH ng/ml SEM / FSH ng/ml Serum ± SEM at +120 min / LH ng/ml Serum ± SEM at +120 min: mean of 6; for FSH ng/ml Serum ± SEM at +120 min / LH ng/ml Serum ± SEM at +120 min: Table X; for +2 hrs LH ± SEM ng/ml serum / FSH ± SEM ng/ml serum (+2 hrs) / +3 hrs LH ± SEM ng/ml serum / FSH ± SEM ng/ml serum (+3 hrs): Table XI, mean 5-6
Description: In vivo rat assay performed by a modification of the method of Bowers, C. Y. et al. Endocrinology, 106, 674 (1980). 21 day old female rats were injected sc with saline or peptide. Blood samples for the RIAs of LH and FSH were collected at +15, +60, +120, or +180 minutes. (Tables VI-XI).

[2] = at 0.1 ng, statement on Table IV
[3] = Table VI, 1.75 ng/rat sc, mean of 9
[4] = Table VI, 5 ng/rat sc, mean of 9
[5] = Table VI, 15 ng/rat sc, mean of 9
[6] = Table VI, 50 ng/rat sc, mean of 9
[7] = Table VIII first section (time not given), 15 ng/rat sc, mean of 5-6
[8] = Table VIII first section (time not given), 150 ng/rat sc, mean of 5-6
[9] = Table VIII, ±60 min after injection, 15 ng/rat sc, mean of 5-6
[10] = Table VIII, ±60 min after injection, 150 ng/rat sc, mean of 5-6

## CC(C)C[C@H](NC(=O)[C@@H](Cc1cccnc1)NC(=O)[C@H](Cc1ccc(O)cc1)NC(=O)[C@H](CO)NC(=O)[C@H](Cc1c[nH]c2ccccc12)NC(=O)[C@H](Cc1c[nH]cn1)NC(=O)[C@@H]1CCC(=O)N1)C(=O)N[C@@H](CCCNC(=N)N)C(=O)N1CCC[C@H]1C(=O)NCC(N)=O [D-Pal^6 -LHRH, pyroGlu-His-Trp-Ser-Tyr-D-3-Pal-Leu-Arg-Pro-GlyNH2]
[1]; dosage 0.03 ng/ml medium
  FSH released into medium (ng/ml) ± SEM: 1062 ± 394
  LH ng/ml medium ± SEM: 73 ± 10 ng/mL
[1]; dosage 0.1 ng/ml medium
  FSH released into medium (ng/ml) ± SEM: 3109 ± 486
  LH ng/ml medium ± SEM: 345 ± 72 ng/mL
[1]; dosage 0.3 ng/ml medium
  FSH released into medium (ng/ml) ± SEM: 5126 ± 967
  LH ng/ml medium ± SEM: 811 ± 182 ng/mL
[1]; dosage 1.0 ng/ml medium
  FSH released into medium (ng/ml) ± SEM: 9637 ± 1490
  LH ng/ml medium ± SEM: 1439 ± 233 ng/mL
[1]; [2]
  activity for the release of LH, D-Pal^6 -LHRH compared with D-Qal^6 -LHRH: essentially equivalent
  release of FSH, D-Pal^6 -LHRH compared with D-Qal^6 -LHRH: same essential equivalents
[1]; inferred from equivalence with D-Qal^6 -LHRH
  potency, D-Pal^6 -LHRH compared with D-Trp^6 -LHRH: essentially equipotent
21 day old female rats; 50 ng/rat sc
  Serum FSH ng/ml SEM: 3099 ± 361 ng/mL
  Serum LH ng/ml SEM: 120 ± 16 ng/mL
  FSH ng/ml Serum ± SEM at +120 min: 3251 ± 485 ng/mL
  LH ng/ml Serum ± SEM at +120 min: 111 ± 26 ng/mL
21 day old female rats; 150 ng/rat sc
  Serum FSH ng/ml SEM: 3064 ± 677 ng/mL
  Serum LH ng/ml SEM: 122 ± 19 ng/mL
  FSH ng/ml Serum ± SEM at +120 min: 5293 ± 686 ng/mL
  LH ng/ml Serum ± SEM at +120 min: 216 ± 46 ng/mL
21 day old female rats; [3]
  Serum FFSH ng/ml ± SEM: 471 ± 128 ng/mL
  Serum LH ng/ml ± SEM: 1.5 ± 0.3 ng/mL
21 day old female rats; [4]
  Serum FFSH ng/ml ± SEM: 738 ± 71 ng/mL
  Serum LH ng/ml ± SEM: 7 ± 1 ng/mL
21 day old female rats; [5]
  Serum FFSH ng/ml ± SEM: 1270 ± 140 ng/mL
  Serum LH ng/ml ± SEM: 43 ± 7 ng/mL
21 day old female rats; [6]
  Serum FFSH ng/ml ± SEM: 2267 ± 342 ng/mL
  Serum LH ng/ml ± SEM: 103 ± 8 ng/mL
21 day old female rats; [7]
  Serum FSH ng/ml ± SEM: 1711 ± 644 ng/mL
  Serum LH ng/ml ± SEM: 36 ± 9 ng/mL
21 day old female rats; [8]
  Serum FSH ng/ml ± SEM: 1591 ± 588 ng/mL
  Serum LH ng/ml ± SEM: 111 ± 16 ng/mL
21 day old female rats; [9]
  Serum FSH ng/ml ± SEM: 1992 ± 379 ng/mL
  Serum LH ng/ml ± SEM: 81.0 ± 17 ng/mL
21 day old female rats; [10]
  Serum FSH ng/ml ± SEM: 6432 ± 2216 ng/mL
  Serum LH ng/ml ± SEM: 106.0 ± 3 ng/mL
21 day old female rats; 50 ng sc
  +2 hrs LH ± SEM ng/ml serum: 108 ± 17 ng/mL
  FSH ± SEM ng/ml serum (+2 hrs): 1727 ± 222 ng/mL
  +3 hrs LH ± SEM ng/ml serum: 20 ± 2.3 ng/mL
  FSH ± SEM ng/ml serum (+3 hrs): 1312 ± 163 ng/mL
21 day old female rats; 150 ng sc
  +2 hrs LH ± SEM ng/ml serum: 144 ± 27 ng/mL
  FSH ± SEM ng/ml serum (+2 hrs): 2362 ± 293 ng/mL
  +3 hrs LH ± SEM ng/ml serum: 38 ± 6.3 ng/mL
  FSH ± SEM ng/ml serum (+3 hrs): 1617 ± 143 ng/mL
21 day old female rats; dosage of 5 ng
  release of LH (in words): significantly released LH
21 day old female rats; dosage of 15 ng
  FSH released: 1270 ± 140 ng
21 day old female rats; dosage of 50 ng, corrected for the level of LH before addition of the peptides
  LH released relative to LHRH: ~50 times
21 day old female rats; summary statement, test not specified
  potency compared with LHRH when tested biologically: significantly more potent than LHRH itself

## CCNC(=O)[C@@H]1CCCN1C(=O)[C@H](CCCNC(=N)N)NC(=O)[C@H](CC(C)C)NC(=O)[C@@H](Cc1c[nH]c2ccccc12)NC(=O)[C@H](Cc1ccc(O)cc1)NC(=O)[C@H](CO)NC(=O)[C@H](Cc1c[nH]c2ccccc12)NC(=O)[C@H](Cc1c[nH]cn1)NC(=O)[C@@H]1CCC(=O)N1 [D-Trp^6 Pro^9 Net--LHRH, pyroGlu--His--Trp--Ser--Tyr-- D-Trp--Leu--Arg--Pro--EA**]
21 day old female rats; Table VII, dosage 100 mg/rat sc (so in the source), ± 15 min
  LH ng/ml Serum ± SEM ± 15 min: 59 ± 10 ng/mL
21 day old female rats; Table VII, dosage 100 mg/rat sc (so in the source), ± 60 min
  LH ng/ml Serum ± SEM ± 60 min: 228 ± 41 ng/mL
21 day old female rats; 150 ng sc
  +2 hrs LH ± SEM ng/ml serum: 184 ± 29 ng/mL
  FSH ± SEM ng/ml serum (+2 hrs): 2260 ± 294 ng/mL
  +3 hrs LH ± SEM ng/ml serum: 103 ± 9 ng/mL
